Where a SMILES comes first, the peptide text is derived from it.
Columns and labels:
Format in all cases: cell-based
[1] = tested on: Escherichia coli NCTC 11601; experiment: Inhibition zone assay; parameters: key: --: "-" means that no inhibition has been found; conditions: I 10 ul
[2] = tested on: Haemophilus influenzae NCTC 7279; experiment: Inhibition zone assay; parameters: key: --: "-" means that no inhibition has been found; conditions: I and B 10 ul
Proteus mirabilis AU 87 = experiment: Inhibition zone assay; parameters: key: --: "-" means that no inhibition has been found; conditions: I and B 10 ul
[3] = tested on: Pseudomonas aeruginosa ATCC 7700; experiment: Inhibition zone assay; parameters: key: --: "-" means that no inhibition has been found
[4] = tested on: Salmonella typhimurium ATCC 23565; experiment: Inhibition zone assay; parameters: key: --: "-" means that no inhibition has been found
Salmonella Wien 83/16 = experiment: Inhibition zone assay; parameters: key: --: "-" means that no inhibition has been found; conditions: I and B 10 ul
[5] = tested on: Salmonella enteritidis 83/34; experiment: Inhibition zone assay; parameters: key: --: "-" means that no inhibition has been found; conditions: I and B 10 ul
[6] = tested on: Serratia fonticola ATCC 298449; experiment: Inhibition zone assay; conditions: I and B 10 ul, L 5 ug
[7] = tested on: Clostridium difficile Bart 1924; experiment: Inhibition zone assay; parameters: key: --: "-" means that no inhibition has been found; conditions: I 10 ul
Method: (§1) Whole lymph or purified components, resuspended in PBS to a final volume equal to the starting material (heated lymph), was applied in 3 mm wells on agar plates seeded with the test organisms. Antibacterial activity was determined by measuring the growth-inhibition zones (in mm).

[8] = tested on: Corynebacterium michiganense pv. michiganense NCPPB 1573; experiment: Inhibition zone assay; parameters: key: --: "-" means that no inhibition has been found
Method: as §1

Shigella flexneri CP 87 = experiment: Inhibition zone assay; parameters: key: --: "-" means that no inhibition has been found; conditions: I 10 ul
Method: as §1

[9] = tested on: Shigella flexneri NCTC 9950; experiment: Inhibition zone assay; parameters: key: --: "-" means that no inhibition has been found; conditions: I and B 10 ul
Method: as §1

Shigella sonnei CQ26 = experiment: Inhibition zone assay; parameters: key: --: "-" means that no inhibition has been found; conditions: I and B 10 ul
Method: as §1

[10] = tested on: Clostridium perfringens NCTC 6785; parameters: key: --: "-" means that no inhibition has been found; conditions: I 10 ul
[11] = tested on: Corynebacterium diphteriae HB 11 t1; experiment: Inhibition zone assay; parameters: key: --: "-" means that no inhibition has been found; conditions: I 10 ul
[12] = tested on: Micrococcus lysodeikticus LMG 4050; experiment: Inhibition zone assay; parameters: key: --: "-" means that no inhibition has been found; conditions: I and B 10 ul, L 5 ug
[13] = tested on: Lactobacillus acidophilus ATCC 4336; experiment: Inhibition zone assay; parameters: key: --: "-" means that no inhibition has been found; conditions: I 10 ul
[14] = tested on: Agrobacterium tumefaciens ATCC 143; experiment: Inhibition zone assay; parameters: key: --: "-" means that no inhibition has been found
[15] = tested on: Erwinia amylovora NCPPB 638; experiment: Inhibition zone assay
[16] = tested on: Erwinia salicis NCPPB 2530; experiment: Inhibition zone assay; parameters: key: --: "-" means that no inhibition has been found; conditions: I and B 10 ul, L 5 ug
[17] = tested on: Rhizobium meliloti ZB 314; experiment: Inhibition zone assay; conditions: I and B 10 ul, L 5 ug
[18] = tested on: Rhizobium leguminosarum 720; experiment: Inhibition zone assay; parameters: key: --: "-" means that no inhibition has been found
[19] = tested on: Xanthomonas campestris pv. graminis NCPPB 2700; experiment: Inhibition zone assay; parameters: key: --: "-" means that no inhibition has been found; conditions: I and B 10 ul, L 5 ug
[20] = tested on: Xanthomonas campestris pv. oryzae IRN 235; parameters: key: --: "-" means that no inhibition has been found
[21] = tested on: Xanthomonas maltophilia JCM1977; experiment: Inhibition zone assay; parameters: key: --: "-" means that no inhibition has been found; conditions: Xanthomonas maltophilia JCM1977 (Tables 2 and 3)
[22] = tested on: Alcalienes denitrificans ATCC 15173; experiment: Inhibition zone assay; parameters: key: --: "-" means that no inhibition has been found
[23] = tested on: Arthrobacter sp. NRRL B-3724; experiment: Inhibition zone assay
[24] = tested on: Bacillus thuringiensis DSM 3131; experiment: Inhibition zone assay; parameters: key: --: "-" means that no inhibition has been found; conditions: I and B 10 ul, L 5 ug
[25] = tested on: Flavobacterium devorans NRRL B-54; experiment: Inhibition zone assay; parameters: key: --: "-" means that no inhibition has been found; conditions: I and B 10 ul, L 5 ug
[26] = tested on: Janthinobacterium lividum Sneath HB; experiment: Inhibition zone assay; parameters: key: --: "-" means that no inhibition has been found; conditions: I and B 10 ul, L 5 ug
[27] = tested on: Pseudomonas paucimobilis ATCC 29837; experiment: Inhibition zone assay; conditions: L 5 ug
[28] = tested on: Pseudomonas fluorescens ATCC 13525; experiment: Inhibition zone assay; parameters: key: --: "-" means that no inhibition has been found
[29] = tested on: Serratia plymuthica ATCC 183; experiment: Inhibition zone assay; parameters: key: --: "-" means that no inhibition has been found; conditions: I and B 10 ul, L 5 ug
E. coli NCTC 9001 = experiment: Killing assay, growth inhibition in liquid medium; conditions: purified factors in PBS (7.5% LPG), 10^3 cells, optical density at 630 nm
Method: Bacterial development was monitored by measuring the optical densities and by plate counts. […] The purified factors resuspended in PBS (7.5% LPG) (FIG. 4A, 4B, 4C, 4D) were inoculated with 10^4 cells (C) or 10^3 cells (A, B and D) . Bacterial development was calculated by measuring the optical densities at 630 nm.

Clostridia = tested on: Clostridia

SMILES: CC[C@H](C)[C@H](NC(=O)[C@H](CCCCN)NC(=O)[C@@H]1CCCN1C(=O)[C@H](CC(N)=O)NC(=O)[C@H](Cc1ccccc1)NC(=O)[C@@H]1CCCN1C(=O)CNC(=O)[C@H](CCC(N)=O)NC(=O)CNC(=O)[C@@H]1CCCN1C(=O)[C@H](Cc1ccccc1)NC(=O)[C@@H](NC(=O)[C@@H]1CCCN1C(=O)[C@H](Cc1ccccc1)NC(=O)[C@@H]1CCCN1C(=O)[C@H](CCCNC(=N)N)NC(=O)[C@H](CCCNC(=N)N)NC(=O)CNC(=O)[C@@H]1CCCN1C(=O)[C@H](CCC(N)=O)NC(=O)[C@@H]1CCCN1C(=O)[C@@H](NC(=O)[C@H](CC(N)=O)NC(=O)[C@@H]1CCCN1C(=O)[C@H](CC(C)C)NC(=O)[C@@H]1CCCN1C(=O)[C@@H](NC(=O)[C@@H](N)Cc1ccc(O)cc1)C(C)C)C(C)C)[C@@H](C)O)C(=O)N[C@@H](CCCCN)C(=O)N[C@@H](Cc1c[nH]c2ccccc12)C(=O)N1CCC[C@H]1C(=O)N[C@@H](CCC(N)=O)C(=O)NCC(=O)N[C@@H](Cc1ccc(O)cc1)C(=O)O [bee 9] (H-YVPLPNVPQPGRRPFPTFPGQGPFNPKIKWPQGY-OH)
- diameter of growth-inhibition zone [1]: --
- diameter of growth-inhibition zone [2]: --
- diameter of growth-inhibition zone (Proteus mirabilis AU 87): --
- diameter of growth-inhibition zone [3]: --
- diameter of growth-inhibition zone [4]: --
- diameter of growth-inhibition zone (Salmonella Wien 83/16): --
- diameter of growth-inhibition zone [5]: --
- diameter of growth-inhibition zone [6]: 9 mm
- diameter of growth-inhibition zone [7]: --
- diameter of growth-inhibition zone [8]: --
- diameter of growth-inhibition zone (Shigella flexneri CP 87): --
- diameter of growth-inhibition zone [9]: --
- diameter of growth-inhibition zone (Shigella sonnei CQ26): --
- diameter of growth-inhibition zone [10]: --
- diameter of growth-inhibition zone [11]: --
- diameter of growth-inhibition zone [12]: --
- diameter of growth-inhibition zone [13]: --
- diameter of growth-inhibition zone [14]: --
- diameter of growth-inhibition zone [15]: 5 mm
- diameter of growth-inhibition zone [16]: --
- diameter of growth-inhibition zone [17]: 4 mm
- diameter of growth-inhibition zone [18]: --
- diameter of growth-inhibition zone [19]: --
- diameter of growth-inhibition zone [20]: --
- diameter of growth-inhibition zone [21]: --
- diameter of growth-inhibition zone [22]: --
- diameter of growth-inhibition zone [23]: 8 mm
- diameter of growth-inhibition zone [24]: --
- diameter of growth-inhibition zone [25]: --
- diameter of growth-inhibition zone [26]: --
- diameter of growth-inhibition zone [27]: 4 mm
- diameter of growth-inhibition zone [28]: --
- diameter of growth-inhibition zone [29]: --
- activity, growth inhibition in liquid medium (E. coli NCTC 9001): neither susceptible
- susceptibility, in words (Clostridia): resistant
